Test system: Hep3b monoculture and triculture spheroids
Assay: Sorafenib treatment of tumour spheroids in devices with and without vasculature (GFP signal of live cells)
Format: cell-based
Details: 10 μM Sorafenib for 7 days from day 5, vascularised vs non-vascularised, FIG. 9B
Method: Next, the effect of Sorafenib treatment on the tumour spheroids and the vasculature was investigated. In this example, Hep3b monoculture and triculture spheroids were seeded in the devices with and without vasculature. At day 5, 10 μM of Sorafenib was used to treat the tumours for 7 days. GFP signal (representing the live cells) was quantified along the time.
In FIG. 9A, representative images from all the conditions are shown at Day 0 (starting of the drug treatment) and Day 5 post-treatment. FIG. 9B is a graph showing the GFP signal over time represented from 3 independent replicates.

In the case of `CNC(=O)c1cc(Oc2ccc(NC(=O)Nc3ccc(Cl)c(C(F)(F)F)c3)cc2)ccn1` [Sorafenib], the “viability of spheroids (GFP signal representing the live cells)” value is reported as “viability of the vascularised spheroids is lower compared to the non-vascularised spheroids”.

Reference: patent US20240018483A1, “A DEVICE AND METHOD FOR VASCULARISING A CELL AGGREGATE” (AGENCY FOR SCIENCE, TECHNOLOGY AND RESEARCH, priority 2020, published 2024)
